pIC50: −log10 of the molar value.
Legend:
[1] = Inhibition of Plasmodium falciparum DHODH expressed in Escherichia coli using L-dihydroorotate as substrate by DCIP-based spectrophotometric method
[2] = Inhibition of Plasmodium falciparum DHODH using L-dihydroorotate as substrate after 20 mins by DCIP-based assay
[3] = Inhibition of Plasmodium falciparum DHODH
[4] = Selectivity ratio of IC50 for human DHODH to IC50 for Plasmodium falciparum DHODH
[5] = tested on: Plasmodium falciparum; test: Antiparasitic activity against Plasmodium falciparum NF54 infected in human erythrocytes by [3H]-hypoxanthine incorporation assay; assay type: functional, cell-based

| SMILES | pIC50 [1] | pIC50 [5] | other results |
| --- | --- | --- | --- |
| COc1ccc2c(c1)ncn2-c1ccc(C(=O)NC2CC2)s1 | – | – | pIC50 [2]: 7.66 |
| Cc1c(C(=O)Nc2cc(Cl)cc(Cl)c2)cccc1[N+](=O)[O-] | – | 4.92 to 5.30 | pIC50 [3]: 6.10 to 7.70; Ratio IC50 [4]: 70 to 12500 |
| N#Cc1cccc2c1ncn2-c1ccc(C(=O)NC2CC2)s1 | – | – | pIC50 [2]: 7.30 |
| CCOC(=O)C(=CNc1cccc(N(C)C)c1)C(=O)OCC | – | 4.92 to 5.30 | – |
| COc1ccccc1NC(=O)Nc1cccc2ccccc12 | – | 4.92 to 5.30 | pIC50 [3]: 6.10 to 7.70; Ratio IC50 [4]: 70 to 12500 |
| COc1cccc2c1ncn2-c1ccc(C(=O)NC2CC2)s1 | – | – | pIC50 [2]: 7.36 |

Now from value to compound, other results behind:

| pIC50 [1] | pIC50 [5] | SMILES | other results |
| --- | --- | --- | --- |
| 6.11 | – | Cc1cc(Nc2ccc(C(F)(F)F)cc2)n2ccnc2n1 | – |
| 7.46 | – | Cc1cc(Nc2ccc(C(F)(F)F)c(F)c2)n2nc(C(F)(F)F)nc2n1 | – |
| 7.92 | – | Cc1cc(Nc2cc(F)c(C(F)(F)F)c(F)c2)n2nc(C(C)(F)F)nc2n1 | – |
| 7.66 | – | Cc1cc(Nc2cc(F)c(C(F)(F)F)c(F)c2)n2nc(C(F)(F)F)nc2n1 | – |
| 7.46 | – | Cc1cc(Nc2ccc(C(F)(F)F)cc2)n2nc(C(F)(F)F)nc2n1 | – |
| – | 4.92 to 5.30 | O=C(Nc1ccc(Cl)cc1Cl)c1ccc2ccccc2c1 | pIC50 [3]: 6.10 to 7.70; Ratio IC50 [4]: 70 to 12500 |

Reference: ChEMBL document CHEMBL3877275, “Dihydroorotate dehydrogenase: A drug target for the development of antimalarials” (Eur J Med Chem, 2017)
